Laboratory results from patent US20240425464A1, “Substituted Monohydrazides as Potent Antifungal Agents” (University of Kentucky Research Foundation, priority 2023, published 2024).
≈ marks a conversion by molar mass, not a printed value. Where two headings read alike, the source gives them in different places.

Columns and labels:
Assay in all cases: MIC determination by in vitro antifungal assay
Type in all cases: cell-based
[1] = test system: Aspergillus flavus ATCC MYA-3631 (O); conditions: strain O = A. flavus ATCC MYA-3631
Description: (§1) 10 mg/mL stock solutions of compounds 1a-9j were prepared in dimethyl sulfoxide (DMSO) and were stored at −20° C. in the dark. The antifungal agent amphotericin B (AmB) was purchased from VWR (Radnor PA, USA). AmB was dissolved in DMSO at a final concentration of 5 mg/mL and was stored at −20° C., protected from light. Candida albicans American Type Culture Collection (ATCC) 10231 (strain A), C. albicans ATCC 64124 (B), and C. albicans ATCC MYA-2876 (C) were obtained from Utah State University. C. albicans ATCC 90819 (D), C. albicans ATCC MYA-2310 (E), C. albicans ATCC MYA-1237 (F), C. albicans ATCC MYA-1003 (G), Candida glabrata ATCC 2001 (H), Candida krusei ATCC 6258 (I), Candida parapsilosis ATCC 22019 (J), Cryptococcus neoformans ATCC MYA-895 (M), Aspergillus terreus ATCC MYA-3633 (N), and Aspergillus flavus ATCC MYA-3631 (0) were obtained from the American Type Culture Collection (ATCC; Manassas, VA, USA). Aspergillus nidulans ATCC 38163 (P) was obtained from University of Kentucky. Clinically derived Aspergillus fumigatus NRRL 163 (Q), A. fumigatus NRRL 5109 (R), and A. fumigatus NRRL 6113 (S) were obtained from Northern Regional Research Laboratory (NRRL). Candida auris 384 (K), C. auris 390 (L), and fungal strains 381-400 (including 10 C. auris (AR Bank #381-390), 3 Candida duobushaemulonii (AR Bank #391, AR Bank #392, and AR Bank #394), 2 Candida haemulonii (AR Bank #393 and AR Bank #395), 1 Kodameae ohmeri (AR Bank #396), 1 C. krusei (AR Bank #397), 1 Candida lusitaniae (AR Bank #398), and 2 Saccharomyces cerevisiae strains (AR Bank #399 and AR Bank #400)) were part of a larger fungal library from the AR Bank maintained by the Centers for Disease Control and Prevention (CDC; Atlanta, GA, USA). Filamentous fungi and yeasts were cultivated at 35° C. in RPMI 1640 medium (with L-glutamine, without sodium bicarbonate, Sigma-Aldrich, St. Louis, MO) buffered to a pH of 7.0 with 0.165 M morpholinepropanesulfonic acid (MOPS) buffer (Sigma-Aldrich). For cytotoxicity assays, HepG2 and the mouse macrophage cell line J774A.1 were obtained from University of Kentucky. The human embryonic kidney cell line, HEK-293, was bought from the ATCC. Mammalian cells were grown in Dulbecco's Modified Eagle's Medium (DMEM) (from VWR) with 10% fetal bovine serum (FBS) (from VWR) and 1% Pen/Strep (from ATCC). Cell lines were cultured at 37° C. with 5% CO2 and passaged by trypsinization with 0.05% trypsin: 0.53 mM EDTA (from Sigma-Aldrich).
(§2) The MIC values of compounds 1a-9j against yeast cells (strains A-P and 381-400) were determined in 96-well plates as described in the CLSI documents M27-A3 and M38-A2 with minor modifications.^2 A single colony of freshly prepared yeast cells was used to inoculate 5 mL of yeast extract peptone dextrose (YPD) broth prior to incubation overnight with shaking at 200 rpm at 35° C. From the actively growing yeast culture, 100 µL were then transferred to 900 μL of RPMI 1640 medium and re-adjusted to achieve OD600 of 0.12 (˜1×10^6 CFU/mL). The cell suspension was further diluted to achieve 1:100 in RPMI 1640 medium. 100 μL of cells were added to the wells of a 96-well microtiter plates that contained 100 µL of the compound solution to obtain concentrations of 0.06-31.3 μg/mL of compounds 1a-9j or AmB prior to incubation for 48 h at 35° C.
(§3) Finally, the activity of these monohydrazides was explored against […] non-Candida strains: Cryptococcus neoformans ATCC MYA-895 (M), Aspergillus terreus ATCC MYA-3633 (N), Aspergillus flavus ATCC MYA-3631 (O), Aspergillus nidulans ATCC 38163 (P), Aspergillus fumigatus NRRL 163 (Q), A. fumigatus NRRL 5109 (R), and A. fumigatus NRRL 6113 (S) (Tables 1A and 1B). The double dilution method was used with concentrations ranging from 0.06 to 31.3 j·tg mL^−1 for monohydrazides 1a-9j, and the commercially available positive antifungal control amphotericin B (AmB).

[2] = test system: Aspergillus terreus ATCC MYA-3633 (N); conditions: strain N = A. terreus ATCC MYA-3633
Description: as §1, §2, §3

[3] = test system: Aspergillus nidulans ATCC 38163 (P)
Description: as §1, §2, §3

[4] = test system: Cryptococcus neoformans ATCC MYA-895 (M); conditions: strain M = C. neoformans ATCC MYA-895
Description: as §1, §2, §3

[5] = test system: Candida parapsilosis ATCC 22019 (J)
Description: as §1
(§4) The MIC values of compounds 1a-9j against yeast cells (strains A-P and 381-400) were determined in 96-well plates as described in the CLSI documents M27-A3 and M38-A2 with minor modifications.^2 A single colony of freshly prepared yeast cells was used to inoculate 5 mL of yeast extract peptone dextrose (YPD) broth prior to incubation overnight with shaking at 200 rpm at 35° C. From the actively growing yeast culture, 100 µL were then transferred to 900 μL of RPMI 1640 medium and re-adjusted to achieve OD600 of 0.12 (˜1×10^6 CFU/mL). The cell suspension was further diluted to achieve 1:100 in RPMI 1640 medium. 100 μL of cells were added to the wells of a 96-well microtiter plates that contained 100 µL of the compound solution to obtain concentrations of 0.06-31.3 μg/mL of compounds 1a-9j or AmB prior to incubation for 48 h at 35° C. […]

[6] = test system: Candida glabrata ATCC 2001 (H); conditions: ATCC 2001 in text
Description: as §1, §4

[7] = test system: Candida krusei ATCC 6258 (I)
Description: as §1, §4

[8] = Aspergillus flavus, read-out: MIC
[9] = Aspergillus terreus, read-out: MIC
[10] = Aspergillus nidulans, ATCC38163, strain P = A. nidulans ATCC 38163, read-out: MIC
[11] = Cryptococcus neoformans, read-out: MIC
[12] = Lodderomyces parapsilosis, ATCC22019, strain J = C. parapsilosis ATCC 22019, read-out: MIC
[13] = Nakaseomyces glabratus, ATCC 2001 / ATCC 2004, strain H = C. glabrata ATCC 2004 (footnote), read-out: MIC
[14] = Pichia kudriavzevii, ATCC6258, strain I = C. krusei ATCC 6258, read-out: MIC
[15] = strain P = A. nidulans ATCC 38163
[16] = strain J = C. parapsilosis ATCC 22019
[17] = strain H = C. glabrata ATCC 2004 (footnote)

Compound | MIC [1, 8] | MIC [2, 9] | MIC [3, 10] | MIC [4, 11] | MIC [5, 12] | MIC [6, 13] | MIC [7, 14] | MIC [1] | MIC [2] | MIC [3, 15] | MIC [4] | MIC [5, 16] | MIC [6, 17] | MIC ([7]; strain I = C. krusei ATCC 6258) | MIC ([7]; against strain I)
COc1cccc(NNC(=O)c2ccc(F)cc2F)c1 [Compound 1c] | > 31.3 µg/mL | 3.9 µg/mL (≈ 14 µM) | 3.9 µg/mL (≈ 14 µM) | 0.49 µg/mL (≈ 1.76 µM) | 7.8 µg/mL (≈ 28 µM) | 31.3 µg/mL (≈ 112 µM) | 0.98 µg/mL (≈ 3.52 µM) |  |  |  |  |  |  |  | 
O=C(NNc1cccc(Cl)c1)c1ccccn1 [Compound 2b] |  |  |  |  |  |  |  | >31.3 μg/mL^−1 | 0.98 μg/mL^−1 | 0.24 μg/mL^−1 | 0.12 μg/mL^−1 | 1.95 μg/mL^−1 | 1.95 μg/mL^−1 | 0.49 μg/mL^−1 | 
O=C(NNc1cc(F)ccc1F)c1cnccn1 [Compound 9h] | > 31.3 µg/mL | 1.95 µg/mL (≈ 7.79 µM) | 1.95 µg/mL (≈ 7.79 µM) | 0.49 µg/mL (≈ 1.96 µM) | 7.8 µg/mL (≈ 31.2 µM) | 15.6 µg/mL (≈ 62.3 µM) | 0.49 µg/mL (≈ 1.96 µM) |  |  |  |  |  |  |  | 
O=C(NNc1ccc(Cl)cc1)c1ccc(F)cc1F [Compound 1e] |  |  |  |  |  |  |  | >31.3 μg/mL^−1 | 31.3 μg/mL^−1 | 31.3 μg/mL^−1 | 1.95 μg/mL^−1 | 31.3 μg/mL^−1 | 3.9 μg/mL^−1 | 15.6 μg/mL^−1 | 
O=C(NNc1cccc(F)c1)c1ccc(F)cn1 [Compound 3a] |  |  |  |  |  |  |  | 7.8 μg/mL^−1 | 1.95 μg/mL^−1 | 0.98 μg/mL^−1 | ≤0.06 μg/mL^−1 | 1.95 μg/mL^−1 | 31.3 μg/mL^−1 | 0.24 μg/mL^−1 | 
COc1cccc(NNC(=O)c2cnccn2)c1 [Compound 9c] | > 31.3 µg/mL | 1.95 µg/mL (≈ 7.98 µM) | 1.95 µg/mL (≈ 7.98 µM) | 0.49 µg/mL (≈ 2.01 µM) | 1.95 µg/mL (≈ 7.98 µM) | 7.8 µg/mL (≈ 31.9 µM) | 0.49 µg/mL (≈ 2.01 µM) |  |  |  |  |  |  |  | 
COc1cccc(NNC(=O)c2nc(F)ccc2F)c1 [Compound 8c] | > 31.3 µg/mL | 31.3 µg/mL (≈ 112 µM) | 7.8 µg/mL (≈ 27.9 µM) | 7.8 µg/mL (≈ 27.9 µM) | 7.8 µg/mL (≈ 27.9 µM) | 15.6 µg/mL (≈ 55.9 µM) | 15.6 µg/mL (≈ 55.9 µM) |  |  |  |  |  |  |  | 
O=C(NNc1cc(F)cc(F)c1)c1cnccn1 [Compound 9i] | 3.9 µg/mL (≈ 15.6 µM) | 1.95 µg/mL (≈ 7.79 µM) | 1.95 µg/mL (≈ 7.79 µM) | 0.24 µg/mL (≈ 0.959 µM) | 3.9 µg/mL (≈ 15.6 µM) | 7.8 µg/mL (≈ 31.2 µM) | 0.49 µg/mL (≈ 1.96 µM) |  |  |  |  |  |  |  | 
O=C(NNc1ccc(F)cc1F)c1cccc(F)n1 [Compound 5g] | 31.3 µg/mL (≈ 117 µM) | 3.9 µg/mL (≈ 14.6 µM) | 0.49 µg/mL (≈ 1.83 µM) | 0.49 µg/mL (≈ 1.83 µM) | 31.3 µg/mL (≈ 117 µM) | 31.3 µg/mL (≈ 117 µM) | 0.98 µg/mL (≈ 3.67 µM) |  |  |  |  |  |  |  | 
O=C(NNc1cccc(F)c1)c1cccc(F)n1 [Compound 5a] |  |  |  |  |  |  |  | >31.3 μg/mL^−1 | 1.95 μg/mL^−1 | 0.98 μg/mL^−1 | ≤0.06 μg/mL^−1 | 7.8 μg/mL^−1 | 31.3 μg/mL^−1 | 0.24 μg/mL^−1 | 
O=C(NNc1ccc(F)cc1)c1cnccn1 [Compound 9d] | 15.6 µg/mL (≈ 67.2 µM) | 1.95 µg/mL (≈ 8.4 µM) | 0.49 µg/mL (≈ 2.11 µM) | 0.24 µg/mL (≈ 1.03 µM) | 3.9 µg/mL (≈ 16.8 µM) | 3.9 µg/mL (≈ 16.8 µM) | 0.49 µg/mL (≈ 2.11 µM) |  |  |  |  |  |  |  | 
COc1ccc(NNC(=O)c2ccc(F)cc2F)cc1 [Compound 1f] | > 31.3 µg/mL | 31.3 µg/mL (≈ 112 µM) | 1.95 µg/mL (≈ 7.01 µM) | 0.98 µg/mL (≈ 3.52 µM) | 7.8 µg/mL (≈ 28 µM) | 3.9 µg/mL (≈ 14 µM) | 0.98 µg/mL (≈ 3.52 µM) |  |  |  |  |  |  |  | 
O=C(NNc1ccc(Cl)cc1)c1nc(F)ccc1F [Compound 8e] |  |  |  |  |  |  |  | >31.3 μg/mL^−1 | >31.3 μg/mL^−1 | 7.8 μg/mL^−1 | 1.95 μg/mL^−1 | 15.6 μg/mL^−1 | 3.9 μg/mL^−1 | 3.9 μg/mL^−1 | 
O=C(NNc1cc(Cl)cc(Cl)c1)c1ccc(F)cc1F [Compound 1j] | > 31.3 µg/mL | > 31.3 µg/mL | 15.6 µg/mL (≈ 49.2 µM) | 7.8 µg/mL (≈ 24.6 µM) | > 31.3 µg/mL | > 31.3 µg/mL | 1.95 µg/mL (≈ 6.15 µM) |  |  |  |  |  |  |  | 1.95 j·tg mL^−1
